Experiments:
EGFR L858R = target: T1, EGFR L858R (Homo sapiens, UniProt P00533, L858R); experiment: Biochemical EGFR inhibition assay (Caliper mobility shift), EGFR L858R; details: biochemical Caliper mobility shift assay, EGFR L858R enzyme; read-out: Enz EGFR L858R IC50
T1 construct: purchased SignalChem E10-122BG
In short: (§1)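 Apparent IC50 values come from Caliper electrophoretic separation of phosphorylated and unphosphorylated 5-FAM peptide (2.5 μM). ATP was either 1.0 mM or at Km; HEPES pH 7.5 buffer with MgCl2, DTT, 1% DMSO. Reactions ran at 25 °C until 10–20% phosphorylated, then EDTA quench.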

EGFR (d746-750) = target: T2, EGFR (d746-750) (Homo sapiens, UniProt P00533, DEL746-750); experiment: Biochemical EGFR inhibition assay (Caliper mobility shift), EGFR (d746-750); details: biochemical Caliper mobility shift assay, EGFR Exon 19-del enzyme; read-out: Enz EGFR Exon 19-del IC50
T2 construct: purchased SignalChem E10-122JG
In short: as §1

[1] = target: intracellular phosphorylation of EGFR (Tyr1068) in PC-9 cells (Homo sapiens, UniProt P00533, DEL746-750); experiment: PC-9 pEGFR AlphaLISA assay; assay type: cell-based; details: 4 hours incubation, read-out: Phos EGFR PC9 IC50
In short: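 PC-9 cells (EGFR del746-750) in phenol-free DMEM/10% FBS, adhered overnight, then exposed to 10-point 4-fold compound dilutions for 4 h at 37 °C. Lysates assayed for pEGFR Tyr1068 by AlphaLISA SureFire Ultra; IC50 from percent pEGFR inhibition vs log concentration.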

T1 sequence (P00533 25-1210 L858R): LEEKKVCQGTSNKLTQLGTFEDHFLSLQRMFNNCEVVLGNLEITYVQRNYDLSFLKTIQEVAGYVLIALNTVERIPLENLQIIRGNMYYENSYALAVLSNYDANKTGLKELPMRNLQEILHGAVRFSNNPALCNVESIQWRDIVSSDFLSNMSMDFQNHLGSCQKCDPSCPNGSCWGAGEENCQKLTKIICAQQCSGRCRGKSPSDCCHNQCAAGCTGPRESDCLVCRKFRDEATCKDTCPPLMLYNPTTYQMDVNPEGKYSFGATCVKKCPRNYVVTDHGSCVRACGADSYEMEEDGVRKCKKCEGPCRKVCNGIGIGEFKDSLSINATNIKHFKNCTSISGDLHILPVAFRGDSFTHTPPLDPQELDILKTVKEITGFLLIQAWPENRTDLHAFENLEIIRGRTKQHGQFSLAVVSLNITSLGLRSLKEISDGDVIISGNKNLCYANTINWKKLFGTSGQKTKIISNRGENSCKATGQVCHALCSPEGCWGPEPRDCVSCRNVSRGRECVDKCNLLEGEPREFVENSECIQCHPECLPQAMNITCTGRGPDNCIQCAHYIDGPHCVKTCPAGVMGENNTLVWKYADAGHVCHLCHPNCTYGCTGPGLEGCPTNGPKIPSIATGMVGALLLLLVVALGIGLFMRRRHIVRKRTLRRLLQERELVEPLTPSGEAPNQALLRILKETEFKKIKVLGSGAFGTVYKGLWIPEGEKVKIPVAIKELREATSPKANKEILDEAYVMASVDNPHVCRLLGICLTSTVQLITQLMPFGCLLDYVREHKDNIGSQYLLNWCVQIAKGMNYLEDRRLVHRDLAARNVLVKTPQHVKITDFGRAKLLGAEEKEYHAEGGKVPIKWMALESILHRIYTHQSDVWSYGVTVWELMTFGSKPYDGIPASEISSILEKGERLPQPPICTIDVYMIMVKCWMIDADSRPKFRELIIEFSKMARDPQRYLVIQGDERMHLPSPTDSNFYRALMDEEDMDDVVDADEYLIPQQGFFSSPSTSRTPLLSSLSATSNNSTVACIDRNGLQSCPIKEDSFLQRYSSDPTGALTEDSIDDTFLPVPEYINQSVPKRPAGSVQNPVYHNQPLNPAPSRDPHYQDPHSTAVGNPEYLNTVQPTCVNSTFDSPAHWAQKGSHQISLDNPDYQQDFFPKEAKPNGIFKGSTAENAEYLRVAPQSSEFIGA
T2 sequence (P00533 with tags, fused parts or gaps DEL746-750 limits assumed): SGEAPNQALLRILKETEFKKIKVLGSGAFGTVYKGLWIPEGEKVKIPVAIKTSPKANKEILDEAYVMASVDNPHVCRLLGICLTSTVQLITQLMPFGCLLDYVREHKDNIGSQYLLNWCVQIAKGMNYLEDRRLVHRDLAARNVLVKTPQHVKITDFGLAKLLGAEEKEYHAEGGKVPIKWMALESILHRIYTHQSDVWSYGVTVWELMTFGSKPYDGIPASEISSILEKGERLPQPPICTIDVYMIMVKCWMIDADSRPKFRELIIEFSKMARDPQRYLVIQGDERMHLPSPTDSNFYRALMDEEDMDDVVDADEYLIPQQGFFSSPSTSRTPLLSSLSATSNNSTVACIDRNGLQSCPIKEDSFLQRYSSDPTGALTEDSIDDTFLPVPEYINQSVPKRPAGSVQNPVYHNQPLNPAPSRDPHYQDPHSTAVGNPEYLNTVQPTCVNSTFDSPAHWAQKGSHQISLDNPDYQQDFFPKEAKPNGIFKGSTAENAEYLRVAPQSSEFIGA
intracellular phosphorylation of EGFR (Tyr1068) in PC-9 cells, sequence (P00533 with tags, fused parts or gaps DEL746-750): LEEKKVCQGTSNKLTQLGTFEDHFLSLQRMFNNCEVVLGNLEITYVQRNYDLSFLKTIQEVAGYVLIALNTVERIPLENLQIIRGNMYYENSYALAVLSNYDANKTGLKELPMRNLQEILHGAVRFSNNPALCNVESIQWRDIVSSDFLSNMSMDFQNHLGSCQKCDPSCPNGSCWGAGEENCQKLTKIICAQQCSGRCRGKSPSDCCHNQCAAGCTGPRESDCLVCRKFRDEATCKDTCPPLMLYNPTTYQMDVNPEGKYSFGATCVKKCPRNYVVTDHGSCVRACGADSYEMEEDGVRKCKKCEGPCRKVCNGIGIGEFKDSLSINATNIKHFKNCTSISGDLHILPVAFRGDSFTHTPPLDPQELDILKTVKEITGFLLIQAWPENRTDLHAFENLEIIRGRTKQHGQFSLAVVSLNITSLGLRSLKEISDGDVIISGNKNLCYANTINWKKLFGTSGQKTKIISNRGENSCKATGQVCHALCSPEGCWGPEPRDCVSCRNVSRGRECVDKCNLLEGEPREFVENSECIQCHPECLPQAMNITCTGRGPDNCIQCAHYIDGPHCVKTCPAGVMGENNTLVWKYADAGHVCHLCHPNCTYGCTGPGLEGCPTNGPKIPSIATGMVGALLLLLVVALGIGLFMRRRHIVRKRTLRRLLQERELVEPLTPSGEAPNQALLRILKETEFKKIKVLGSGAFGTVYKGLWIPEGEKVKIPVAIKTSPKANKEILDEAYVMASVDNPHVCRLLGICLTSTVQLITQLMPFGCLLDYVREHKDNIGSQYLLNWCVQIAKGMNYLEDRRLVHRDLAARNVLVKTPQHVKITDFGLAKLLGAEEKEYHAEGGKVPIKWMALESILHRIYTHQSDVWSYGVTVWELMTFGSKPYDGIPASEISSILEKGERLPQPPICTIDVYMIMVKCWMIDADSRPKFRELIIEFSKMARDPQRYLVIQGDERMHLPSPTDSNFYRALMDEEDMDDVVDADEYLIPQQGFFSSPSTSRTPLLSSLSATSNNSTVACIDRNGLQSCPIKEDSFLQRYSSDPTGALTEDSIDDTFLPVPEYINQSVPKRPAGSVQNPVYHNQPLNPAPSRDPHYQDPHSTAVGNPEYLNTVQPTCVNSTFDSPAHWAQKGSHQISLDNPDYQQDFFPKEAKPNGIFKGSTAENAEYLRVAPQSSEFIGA

SMILES | IC50 (EGFR L858R) [nM] | IC50 (EGFR (d746-750)) [nM] | IC50 [1] [nM]
CCN1CC[C@H](Oc2cc(-c3cnn(C)c3)cc3ncnc(Nc4ccc5ncsc5c4)c23)C1=O (single isomer, unassigned) [Example 60, (S)-3-((4-(benzo[d]thiazol-6-ylamino)-7-(1-methyl-1H-pyrazol-4-yl)quinazolin-5-yl)oxy)-1-ethylpyrrolidin-2-one or (R)-3-((4-(benzo[d]thiazol-6-ylamino)-7-(1-methyl-1H-pyrazol-4-yl)quinazolin-5-yl)oxy)-1-ethylpyrrolidin-2-one] | ≤ 10 | ≤ 10 | 10.1 to 50
COc1cc2ncnc(Nc3ccc4ncsc4c3)c2cc1-c1cnn(CC2CCN(C)CC2)c1 [Example 242, N-(7-methoxy-6-(1-((1-methylpiperidin-4-yl)methyl)-1H-pyrazol-4-yl)quinazolin-4-yl)benzo[d]thiazol-6-amine] | ≤ 10 | ≤ 10 | 10.1 to 50
COCCOc1cc(O[C@H](C)C2COC2)c2c(Nc3ccc4ncsc4c3)ncnc2c1 [Example 126, (R)-N-(7-(2-methoxyethoxy)-5-(1-(oxetan-3-yl)ethoxy)quinazolin-4-yl)benzo[d]thiazol-6-amine] | ≤ 10 | ≤ 10 | ≤ 10
COc1nn(C)cc1-c1cc(O[C@H]2CCN(C)C2=O)c2c(Nc3ccc4ncsc4c3)ncnc2c1 (single isomer, unassigned) [Example 75] | ≤ 10 | ≤ 10 | ≤ 10
Cn1ccc(-c2cc3ncnc(Nc4ccc5ncsc5c4)c3cc2NC(=O)CCN2CCCCC2)n1 [Example A47, N-(4-(benzo[d]thiazol-6-ylamino)-7-(1-methyl-1H-pyrazol-3-yl)quinazolin-6-yl)-3-(piperidin-1-yl)propanamide] | ≤ 10 | ≤ 10 | ≤ 10
C[C@@H](Oc1cc(-c2cnn(C)c2)cc2ncnc(Nc3ccc4ncsc4c3)c12)C1CN(C)C1 (single isomer, unassigned) [Example 385] | ≤ 10 | ≤ 10 | ≤ 10
Cn1cc(-c2cc(OCC3(C)COC3)c3c(Nc4ccc5ncsc5c4)ncnc3c2)cn1 [Example 49, N-(7-(1-methyl-1H-pyrazol-4-yl)-5-((3-methyloxetan-3-yl)methoxy)quinazolin-4-yl)benzo[d]thiazol-6-amine] | ≤ 10 | ≤ 10 | 10.1 to 50
C[C@H](Oc1cc(-c2cnn(C)c2)cc2ncnc(Nc3ccc4ncsc4c3F)c12)C1CCOC1 (stereo partly drawn) [Example 90, 7-fluoro-N-(7-(1-methyl-1H-pyrazol-4-yl)-5-((1S)-1-(tetrahydrofuran-3-yl)ethoxy)quinazolin-4-yl)benzo[d]thiazol-6-amine] | ≤ 10 | ≤ 10 | 10.1 to 50
Cn1cc(-c2cc(OC(C)(C)C(=O)N3CCOCC3)c3c(Nc4ccc5ncsc5c4)ncnc3c2)cn1 [Example 286, 2-((4-(benzo[d]thiazol-6-ylamino)-7-(1-methyl-1H-pyrazol-4-yl)quinazolin-5-yl)oxy)-2-methyl-1-morpholinopropan-1-one] | 10.1 to 50 | ≤ 10 | 10.1 to 50
COC[C@H](C)Oc1cc(N2CCN(C(C)C)C2=O)cc2ncnc(Nc3ccc4ncsc4c3)c12 (single isomer, unassigned) [Example 118] | ≤ 10 | ≤ 10 | ≤ 10
Cn1cc(-c2cc(O[C@H]3CCNC[C@@H]3F)c3c(Nc4ccc5ncsc5c4)ncnc3c2)c(OC(F)F)n1 (racemic) [Example 370, N-(7-(3-(difluoromethoxy)-1-methyl-1H-pyrazol-4-yl)-5-(((3S,4S)-3-fluoropiperidin-4-yl)oxy)quinazolin-4-yl)benzo[d]thiazol-6-amine] | ≤ 10 | ≤ 10 | ≤ 10
CC(C)Oc1cc(O[C@H](C)C2COC2)c2c(Nc3ccc4ncsc4c3)ncnc2c1 [Example 125, (R)-N-(7-isopropoxy-5-(1-(oxetan-3-yl)ethoxy)quinazolin-4-yl)benzo[d]thiazol-6-amine] | ≤ 10 | ≤ 10 | 10.1 to 50
CN1CC[C@H](Oc2cc(-c3cnn(C)c3)cc3ncnc(Nc4ccc5ncsc5c4)c23)C1=O (single isomer, unassigned) [Example 23] | ≤ 10 | ≤ 10 | ≤ 10
C[C@H](Oc1cc(-c2cnn(C)c2)cc2ncnc(Nc3ccc4ncsc4c3)c12)C(=O)N1CCOCC1 [Example 284, (S)-2-((4-(benzo[d]thiazol-6-ylamino)-7-(1-methyl-1H-pyrazol-4-yl)quinazolin-5-yl)oxy)-1-morpholinopropan-1-one] | ≤ 10 | ≤ 10 | ≤ 10
C[C@H](CO)Oc1cc(N2CCN(C)CC2)cc2ncnc(Nc3ccc4ncsc4c3)c12 (single isomer, unassigned) [Example 293] | ≤ 10 | ≤ 10 | 10.1 to 50
Cn1cc(-c2cc(OCC(=O)N3CCOCC3)c3c(Nc4ccc5ncsc5c4F)ncnc3c2)cn1 [Example 276, 2-((4-((7-fluorobenzo[d]thiazol-6-yl)amino)-7-(1-methyl-1H-pyrazol-4-yl)quinazolin-5-yl)oxy)-1-morpholinoethan-1-one] | ≤ 10 | ≤ 10 | ≤ 10
C[C@@H]1CN(c2cc(O[C@H](C)C3COC3)c3c(Nc4ccc5ncsc5c4)ncnc3c2)C[C@H](C)O1 [Example 193, N-(7-((2S,6R)-2,6-dimethylmorpholino)-5-((R)-1-(oxetan-3-yl)ethoxy)quinazolin-4-yl)benzo[d]thiazol-6-amine] | ≤ 10 | ≤ 10 | ≤ 10
C[C@@H](Oc1cc(N2CCN(C)[C@@H](C)C2)cc2ncnc(Nc3ccc4ncsc4c3F)c12)C1COC1 (single isomer, unassigned) [Example 98] | ≤ 10 | ≤ 10 | 10.1 to 50
CC(Oc1cc(-c2cnn(C)c2)cc2ncnc(Nc3ccc4ncsc4c3F)c12)C(=O)N(C)C (stereo not drawn) [Example 278, 2-((4-((7-fluorobenzo[d]thiazol-6-yl)amino)-7-(1-methyl-1H-pyrazol-4-yl)quinazolin-5-yl)oxy)-N,N-dimethylpropanamide] | ≤ 10 | ≤ 10 | ≤ 10
CN1CC[C@@H](F)[C@@H](Oc2cc(-c3cnn(C)c3)cc3ncnc(Nc4ccc5ncsc5c4)c23)C1 (single isomer, unassigned) [Example 162] | ≤ 10 | ≤ 10 | 10.1 to 50
CN1CCC(Nc2cc3c(Nc4ccc5ncsc5c4)ncnc3cc2-c2ccn(C)n2)CC1 [Example 258, N4-(benzo[d]thiazol-6-yl)-7-(1-methyl-1H-pyrazol-3-yl)-N6-(1-methylpiperidin-4-yl)quinazoline-4,6-diamine] | ≤ 10 | ≤ 10 | ≤ 10
Cn1cc(-c2cc(OC3CCCOC3)c3c(Nc4ccc5ncsc5c4)ncnc3c2)cn1 (single isomer, unassigned) [Example 7] | ≤ 10 | ≤ 10 | 10.1 to 50
CN1CCC(Oc2cc(-c3cn(C)nc3OC(F)F)cc3ncnc(Nc4ccc5ncsc5c4)c23)CC1 [Example A18, N-(7-(3-(difluoromethoxy)-1-methyl-1H-pyrazol-4-yl)-5-((1-methylpiperidin-4-yl)oxy)quinazolin-4-yl)benzo[d]thiazol-6-amine] | 10.1 to 50 | ≤ 10 | 10.1 to 50

From patent publication US20260207602A1, “EGFR INHIBITORS” (Blueprint Medicines Corporation, priority 2022, published 2026)
